According to the NIST ThermoML archive (doi:10.1016/j.fluid.2015.03.012):
Numbers after ± are expanded uncertainties.

Test: mn = molality of the nth substance listed, in mol/kg
Details: Survismeter

SMILES: C[C@H](CCC(=O)[O-])[C@H]1CC[C@H]2[C@@H]3[C@H](O)C[C@@H]4C[C@H](O)CC[C@]4(C)[C@H]3C[C@H](O)[C@]12C.[Na+] [sodium cholate] + O
- surface tension liquid-gas (293.15 K, m1 = 0.001): 63.15 ± 0.74 mN/m
- surface tension liquid-gas (293.15 K, m1 = 0.002): 61.61 ± 0.67 mN/m
- surface tension liquid-gas (293.15 K, m1 = 0.003): 60.5 ± 0.59 mN/m
- surface tension liquid-gas (293.15 K, m1 = 0.004): 59.43 ± 0.61 mN/m
- surface tension liquid-gas (293.15 K, m1 = 0.006): 57.08 ± 0.58 mN/m
- surface tension liquid-gas (293.15 K, m1 = 0.008): 55.21 ± 0.5 mN/m
- surface tension liquid-gas (293.15 K, m1 = 0.01): 54.04 ± 0.49 mN/m
- surface tension liquid-gas (293.15 K, m1 = 0.014): 51.04 ± 0.44 mN/m
- surface tension liquid-gas (293.15 K, m1 = 0.018): 50.55 ± 0.4 mN/m
- surface tension liquid-gas (293.15 K, m1 = 0.022): 50.83 ± 0.4 mN/m
- surface tension liquid-gas (293.15 K, m1 = 0.026): 50.59 ± 0.4 mN/m
- surface tension liquid-gas (293.15 K, m1 = 0.03): 50.62 ± 0.4 mN/m
- surface tension liquid-gas (298.15 K, m1 = 0.001): 62.55 ± 0.69 mN/m
- surface tension liquid-gas (298.15 K, m1 = 0.002): 61.03 ± 0.66 mN/m
- surface tension liquid-gas (298.15 K, m1 = 0.003): 59.94 ± 0.59 mN/m
- surface tension liquid-gas (298.15 K, m1 = 0.004): 58.89 ± 0.57 mN/m
- surface tension liquid-gas (298.15 K, m1 = 0.006): 56.89 ± 0.56 mN/m
- surface tension liquid-gas (298.15 K, m1 = 0.008): 55.03 ± 0.52 mN/m
- surface tension liquid-gas (298.15 K, m1 = 0.01): 53.57 ± 0.49 mN/m
- surface tension liquid-gas (298.15 K, m1 = 0.014): 50.87 ± 0.43 mN/m
- surface tension liquid-gas (298.15 K, m1 = 0.018): 50.64 ± 0.4 mN/m
- surface tension liquid-gas (298.15 K, m1 = 0.022): 50.4 ± 0.4 mN/m
- surface tension liquid-gas (298.15 K, m1 = 0.026): 50.17 ± 0.4 mN/m
- surface tension liquid-gas (298.15 K, m1 = 0.03): 50.2 ± 0.4 mN/m
- surface tension liquid-gas (303.15 K, m1 = 0.001): 61.55 ± 0.81 mN/m
- surface tension liquid-gas (303.15 K, m1 = 0.002): 60.07 ± 0.65 mN/m
- surface tension liquid-gas (303.15 K, m1 = 0.003): 59.01 ± 0.53 mN/m
- surface tension liquid-gas (303.15 K, m1 = 0.004): 58.33 ± 0.58 mN/m
- surface tension liquid-gas (303.15 K, m1 = 0.006): 56.04 ± 0.55 mN/m
- surface tension liquid-gas (303.15 K, m1 = 0.008): 54.52 ± 0.5 mN/m
- surface tension liquid-gas (303.15 K, m1 = 0.01): 53.09 ± 0.48 mN/m
- surface tension liquid-gas (303.15 K, m1 = 0.014): 50.43 ± 0.43 mN/m
- surface tension liquid-gas (303.15 K, m1 = 0.018): 50.2 ± 0.4 mN/m
- surface tension liquid-gas (303.15 K, m1 = 0.022): 50.22 ± 0.4 mN/m
- surface tension liquid-gas (303.15 K, m1 = 0.026): 49.99 ± 0.4 mN/m
- surface tension liquid-gas (303.15 K, m1 = 0.03): 50.26 ± 0.4 mN/m
- surface tension liquid-gas (308.15 K, m1 = 0.001): 61.35 ± 0.59 mN/m
- surface tension liquid-gas (308.15 K, m1 = 0.002): 59.88 ± 0.64 mN/m
- surface tension liquid-gas (308.15 K, m1 = 0.003): 58.83 ± 0.58 mN/m
- surface tension liquid-gas (308.15 K, m1 = 0.004): 57.82 ± 0.59 mN/m
- surface tension liquid-gas (308.15 K, m1 = 0.006): 55.58 ± 0.55 mN/m
- surface tension liquid-gas (308.15 K, m1 = 0.008): 54.09 ± 0.5 mN/m
- surface tension liquid-gas (308.15 K, m1 = 0.01): 52.68 ± 0.47 mN/m
- surface tension liquid-gas (308.15 K, m1 = 0.014): 50.32 ± 0.43 mN/m
- surface tension liquid-gas (308.15 K, m1 = 0.018): 49.59 ± 0.4 mN/m
- surface tension liquid-gas (308.15 K, m1 = 0.022): 49.61 ± 0.4 mN/m
- surface tension liquid-gas (308.15 K, m1 = 0.026): 49.63 ± 0.4 mN/m
- surface tension liquid-gas (308.15 K, m1 = 0.03): 49.9 ± 0.4 mN/m
- surface tension liquid-gas (313.15 K, m1 = 0.001): 60 ± 0.66 mN/m
- surface tension liquid-gas (313.15 K, m1 = 0.002): 58.96 ± 0.57 mN/m
- surface tension liquid-gas (313.15 K, m1 = 0.003): 57.95 ± 0.56 mN/m
- surface tension liquid-gas (313.15 K, m1 = 0.004): 56.98 ± 0.55 mN/m
- surface tension liquid-gas (313.15 K, m1 = 0.006): 55.14 ± 0.54 mN/m
- surface tension liquid-gas (313.15 K, m1 = 0.008): 53.41 ± 0.51 mN/m
- surface tension liquid-gas (313.15 K, m1 = 0.01): 52.05 ± 0.45 mN/m
- surface tension liquid-gas (313.15 K, m1 = 0.014): 50.26 ± 0.43 mN/m
- surface tension liquid-gas (313.15 K, m1 = 0.018): 49.07 ± 0.41 mN/m
- surface tension liquid-gas (313.15 K, m1 = 0.022): 49.09 ± 0.4 mN/m
- surface tension liquid-gas (313.15 K, m1 = 0.026): 49.11 ± 0.4 mN/m
- surface tension liquid-gas (313.15 K, m1 = 0.03): 49.37 ± 0.4 mN/m
- surface tension liquid-gas (318.15 K, m1 = 0.001): 59.45 ± 0.67 mN/m
- surface tension liquid-gas (318.15 K, m1 = 0.002): 58.1 ± 0.57 mN/m
- surface tension liquid-gas (318.15 K, m1 = 0.003): 57.45 ± 0.51 mN/m
- surface tension liquid-gas (318.15 K, m1 = 0.004): 56.5 ± 0.54 mN/m
- surface tension liquid-gas (318.15 K, m1 = 0.006): 54.69 ± 0.53 mN/m
- surface tension liquid-gas (318.15 K, m1 = 0.008): 52.99 ± 0.5 mN/m
- surface tension liquid-gas (318.15 K, m1 = 0.01): 51.65 ± 0.47 mN/m
- surface tension liquid-gas (318.15 K, m1 = 0.014): 49.42 ± 0.43 mN/m
- surface tension liquid-gas (318.15 K, m1 = 0.018): 48.73 ± 0.4 mN/m
- surface tension liquid-gas (318.15 K, m1 = 0.022): 48.75 ± 0.4 mN/m
- surface tension liquid-gas (318.15 K, m1 = 0.026): 48.77 ± 0.4 mN/m
- surface tension liquid-gas (318.15 K, m1 = 0.03): 48.56 ± 0.4 mN/m
